Values quoted from earlier work as cited in patent US7399616B2, “Enzymatic synthesis of Nα-acyl-L-arginine esters” (Laboratorios Miret, S.A., priority 2002, dated 2008).

Columns and labels:
[1] = rats; metabolised into naturally-occurring amino acids and lauric acid, excreted as carbon dioxide and urea
microorganisms = settings: acts over external and cytoplasmatic membrane and into cytoplasmatic medium; depends on kind of microorganism and exposure time
[2] = animals and humans

CCCCCCCCCCCC(=O)N[C@@H](CCCN=C(N)N)C(=O)OCC.Cl [LAE, ethyl ester of the laurylamide of the L-arginine monohydrochloride]
absorption and metabolism [1]: fast absorption and metabolism
action on microorganisms (proliferation) (microorganisms): preventing their proliferation
toxicity [2]: completely harmless
